From patent US20260258333A1, “MULTI-ORGAN "BODY ON A CHIP" APPARATUS UTILIZING A COMMON MEDIA” (Wake Forest University Health Sciences, priority 2016, published 2026)
Like-named read-outs stand apart in the source and are kept apart here.

Legend:
[1] = tested on: liver organoids, 2D primary human hepatocytes, 2D HepG2; assay: ATP activity, 3D liver organoids versus 2D hepatocyte and 2D HepG2 cultures; type: cell-based; details: ATP normalized to no drug baseline
From the text: (§4) Comparison of ATP activity in response to drug screens of FDA-recalled drugs between 3D liver and cardiac organoids, 2D hepatocyte and cardiomyocyte cultures, and 2D HepG2 and C2C12 cell line cultures. Panels a-d) ATP activity of liver organoids, 2D primary human hepatocytes, and 2D hepG2 cell line cultures in response to panel a) troglitazone, panel b) mibefradil, panel c) bromfenac, and panel d) tielinic acid. Panels e-i) ATP activity of cardiac organoids, 2D iPS-derived cardiomyocytes, and 2D C2C12 cell line cultures in response to panel e) astemizole, panel f) pergoglide, panel g) terodiline, panel h) rofecoxib, and panel i) valdecoxib. Comparisons between groups were normalized to the no drug baseline ATP activity levels. Statistical significance: *p<0.05, 3D organoids versus both 2D cultures; #p<0.05, 2D hepatocytes/cardiomyocytes versus both 3D organoids and 2D cell lines; $ p<0.05, 2D cell line versus both 3D organoids and 2D hepatocytes/cardiomyocytes.
(§5) In comparison to 3D organoid systems, we also screened these drugs using 2D primary hepatocyte and iPS cardiomyocyte cultures, and 2D hepg2 hepatoma cells and C2C12 myoblast cultures. […] In order to allow comparisons between the different cell model form factors, which employed different numbers of cells (liver organoids—1500; cardiac organoids—2500; 2D hepatocytes—20000; 2D cardiomyocytes—12500; HepG2 and C2C12 cultures—20000), ATP levels were normalized to no drug baseline levels.

[2] = marketed use in patients; cited from earlier work
[3] = tested on: liver organoids; assay: LIVE/DEAD staining of 3D liver organoids, FDA-recalled drug screen; type: cell-based, human; details: increasing drug concentration (troglitazone 0-3 μM, mibefradil 0-100 μM)
From the text: Unfortunately, many drugs have made it through preclinical studies and clinical trials, after which they existed on the market, for years in some cases, before being recalled by the Food and Drug Administration (FDA) for having toxic effects in humans. […] These include liver toxins troglitazone, mibefradil, bromfenac, and tienilic acid, as well as cardiac toxins, astemizole, pergoglide, terodiline, rofecoxib, and valdecoxib.

[4] = tested on: liver organoids; assay: Liver on a chip: acetaminophen toxicity and N-acetyl-L-cysteine countermeasure; type: cell-based, human; details: for albumin and urea output into media: APAP 1 or 10 mM, NAC 20 mM with 10 mM APAP
Procedure: FIG. 13. […] Viability as determined by LIVE/DEAD staining on day 14. Organoids were exposed to panel a) a 0 mM APAP control, panel b) 1 mM APAP, panel c) 10 mM APAP, or panel d) 10 mM APAP with 20 mM N-acetyl-L-cysteine. Green—Calcein AM-stained viable cells; Red—Ethidium homodimer-stained dead cells. […] Quantification of panel e) human albumin, panel f) urea, panel g) lactate dehydrogenase, and panel h) alpha-GST. […] Statistical significance: *p<0.05 between control and APAP; # p<0.05 APAP+NAC and APAP.

[5] = tested on: cardiac organoids; details: preliminary results, FIG. 22
Procedure: Following compound exposures, organoids were assessed for viability with LIVE/DEAD staining or ATP activity.

[6] = tested on: cardiac organoids, 2D iPS-derived cardiomyocytes, 2D C2C12
From the text: as §4, §5

[7] = tested on: cardiac organoids, 2D iPS-derived cardiomyocytes, 2D C2C12; assay: ATP activity, 3D cardiac organoids versus 2D iPS cardiomyocyte and 2D C2C12 cultures
From the text: as §4, §5

[8] = tested on: cardiac organoids
Procedure: FIG. 14. […] Panel a) Beating output under baseline conditions, from which beating rate is determined. Panels b-e) Change in cardiac organoid beat rate resulting from exposure to panel b) isoproterenol, or panel c) quinidine. Panels d-e) Cardiac organoid response to epinephrine and propranolol.
FIG. 19. Assessment of cardiac organoid beating kinetics in response to panel a) astemizole, panel b) pergoglide, and panel c) terodiline.
It should be noted that most drugs that are recalled for causing cardiac toxicity are not actually recalled due to cardiac cell death, but rather for causing changes in cardiac function, such as beating kinetics. While 2D cardiomyocyte cultures can maintain beating activity, consistency and reproducibility can be difficult to maintain. […] These facts make it more difficult to compare beating kinetics between these cell model types.

[9] = tested on: liver, cardiac, lung, testis, and brain organoids
Procedure: Aim of Experiment: To assess dependence of multi organoid toxicity on liver organoid metabolic function.
At this point, the liver modules were removed from half of the platforms. Capecitabine (20 μM) was administered to all platforms after which viability was assessed through live/dead staining or cardiac beating behavior after 7 days of exposure (day 14 of total study).

[10] = tested on: liver, cardiac, lung, testis, and brain organoids; remark: listed apart in the source
Procedure: A microfluidic platform having a miniaturized footprint and fluid volume was prepared and it was assessed whether the same complex drug studies are possible on this platform.
As with the full-scale platform described in Example 4, five tissue constructs were initiated containing liver, cardiac, lung, testis, and brain organoids and maintained for 7 days prior to the start of the drug study. At this point, the liver modules were removed from half of the platforms. Capecitabine (20 uM) was administered to all platforms after which viability was assessed through live/dead staining or cardiac beating behavior after 7 days of exposure (day 14 of total study).

[11] = tested on: vascular endothelium (human umbilical vein endothelial cells); details: 100 μM histamine, constant for 10 minutes; normal media about 0.54 kΩ
From the text: The goal of our work was to develop a highly functional microfluidic perfusion-driven six-tissue body-on-a-chip system, containing representations of liver, heart, vasculature, lung, testes, and colon (FIG. 1, panels A-B). Importantly, these individual tissue types would be constructed in modular microfluidic hardware devices, or microreactors (FIG. 1, panel B), formed by conventional polydimethyl-siloxane (PDMS) soft lithography and molding, ^11,30,31 allowing simple “plug and play” capabilities for platform initialization. […] Because of the specific individual requirements of each type of tissue model, a toolbox of biofabrication techniques was employed to create each tissue model (FIG. 1, panels C-E). Briefly, using hanging drop methodology, spherical liver organoids were formed with primary human hepatocytes, stellate cells, and Kupffer cells, spherical cardiac organoids and testes organoids were formed using human induced pluripotent stem (iPS) cells. These spherical organoids were then bioprinted (FIG. 7) into the microreactors using a liver ECM-derived bio-ink, a fibrin and gelatin bio-ink, and a hyaluronic acid (HA) and gelatin bio-ink, employing crosslinking of the hydrogel bio-inks to immobilize the organoids as larger hydrogel-organoid constructs within the perfusion system. […]

[12] = tested on: vascular endothelium; details: confluent monolayers, 100 μM histamine from 20 min, at 45 min; 50-90 RFUs before histamine
Procedure: New vascular modules were prepared with either fully confluent endothelial layers or non-confluent layers. For this experiment, liver organoids were immobilized in liver-specific bioink, as described, in the bottom chamber of the modules (FIG. 3, panel f). These were imaged in parallel to the mass transport experiment by macro-confocal microscopy, showing the endothelium on the semi-porous membrane (membrane not visible) and the 3D liver organoid below (FIG. 3, panel g). Importantly, for the mass transport experiment, the bioink also contained a soluble fluorescent dye consisting of soluble 15 kDa gelatin conjugated with Alexa Fluor 594 maleimide tags in media. Upon addition of the liver organoids, bioink, and dye in the bottom chamber of the device, devices were sealed, and experiments were initiated. Modules were maintained under 25 μL/min flow with normal media coming from a media reservoir, during which aliquots from the outlet ports were collected every 5 minutes. […] Aliquots were analyzed following the experiment for fluorescent intensity.

[13] = tested on: cardiac organoids downstream of liver construct
From the text: (§1) In the human body, organs interact with one another in complex ways. […] The modular nature of the fluidic system was employed to construct such a platform. Real-time visual monitoring of cardiac organoids was achieved using an onboard LED and camera system that was customized to integrate with the cardiac construct microreactor housing (FIG. 6, panel a) ^32. This system allowed real time video capture (FIG. 6, panel b). Using custom written MatLab code with a series of MatLab functions, moving pixels in each frame were determined against time, generating a binary representation of beat propagation (FIG. 6, panel c) and plots visualizing beating rates.
(§2) Effects of epinephrine and propranolol were first tested independently with a cardiac-only system or the tandem system, before being tested jointly in both systems.
(§3) Next, the interplay between both drugs in the cardiac-only and tandem systems was assessed. […] Beating plots for each condition are depicted in FIG. 6, panels f-i.

[14] = tested on: cardiac organoids; remark: listed apart in the source
From the text: as §1, §2, §3

## O=C(O)COc1ccc(C(=O)c2cccs2)c(Cl)c1Cl [Tienilic Acid]
[1]
  sensitivity by ATP activity, 3D organoids versus both 2D systems: did not experience significantly different responses
[2]
  Site of Primary Toxicity: Liver

## Cc1c(C)c2c(c(C)c1O)CCC(C)(COc1ccc(CC3SC(=O)NC3=O)cc1)O2 (centres unmarked) [Troglitazone]
[3]
  cell death, LIVE/DEAD: increases in cell death
[2]
  Site of Primary Toxicity: Liver

## CC(=O)Nc1ccc(O)cc1 [APAP, acetaminophen]
[4]
  albumin and urea output into media: negatively affected
[4]; APAP treatment
  LDH and alpha-GST in media: elevated levels

## CC(=O)N[C@@H](CS)C(=O)O [NAC, N-acetyl-L-cysteine]
[4]; 10 mM APAP with 20 mM N-acetyl-L-cysteine
  viability, LIVE/DEAD staining on day 14: rescued
[4]
  albumin and urea output into media: decreases this reduction in secretion

## O=[N+]([O-])[O-].[Tl+] [thallium, thallium nitrate]
[5]
  ATP activity: decreases in ATP activity

## Cc1onc(-c2ccccc2)c1-c1ccc(S(N)(=O)=O)cc1 [Valdecoxib]
[6]
  sensitivity by ATP activity, 2D cardiomyocyte cultures compared to 3D organoids and 2D C2C12 cultures: increased sensitivity
[2]
  Site of Primary Toxicity: Heart

## O=C(O)CNCP(=O)(O)O [glyphosate]
[5]
  ATP activity: decreases in ATP activity

## COCC(=O)O[C@]1(CCN(C)CCCc2nc3ccccc3[nH]2)CCc2cc(F)ccc2[C@@H]1C(C)C [Mibefradil]
[3]
  cell death, LIVE/DEAD: increases in cell death
[1]
  sensitivity by ATP activity, 3D organoids and 2D hepatocyte cultures in comparison to 2D HepG2 cultures: more sensitive
[2]
  Site of Primary Toxicity: Liver

## [Cl][Pb][Cl] [lead, lead chloride]
[5]
  ATP activity: decreases in ATP activity

## CS(=O)(=O)c1ccc(C2=C(c3ccccc3)C(=O)OC2)cc1 [Rofecoxib]
[2]
  Site of Primary Toxicity: Heart
[7]; only at low to medium drug concentrations
  sensitivity by ATP activity, 2D cardiomyocyte cultures compared to 3D organoids and 2D C2C12 cultures: increased sensitivity

## COc1ccc(CCN2CCC(Nc3nc4ccccc4n3Cc3ccc(F)cc3)CC2)cc1 [Astemizole]
[8]
  beating kinetics of 3D cardiac organoids: detrimental changes in beating kinetics
[6]
  sensitivity by ATP activity, 3D cardiac organoids compared to the 2D systems: significantly more sensitive
[2]
  Site of Primary Toxicity: Heart

## CCCCCOC(=O)Nc1nc(=O)n([C@@H]2O[C@H](C)[C@@H](O)[C@H]2O)cc1F [capecitabine]
[9]
  metabolism of the prodrug: this metabolism does not occur
[9]; human, 7 days, 20 μM
  metabolism of the prodrug: metabolized into the toxic drug 5-FU
[10]
  metabolism of the prodrug: this metabolism does not occur
[10]; human, 7 days, 20 uM
  metabolism of the prodrug: metabolized into the toxic drug 5-FU

## CCCN1C[C@H](CSC)C[C@@H]2c3cccc4[nH]cc(c34)C[C@H]21 [Pergoglide]
[8]
  beating kinetics of 3D cardiac organoids: detrimental changes in beating kinetics
[6]
  sensitivity by ATP activity, 3D cardiac organoids compared to the 2D systems: significantly more sensitive
[2]
  Site of Primary Toxicity: Heart

## NCCc1c[nH]cn1 [histamine]
[11]
  resistance across endothelium layers (TEER): approximately 0.4 kΩ
[12]
  fluorescent intensity of outlet aliquots (dye transfer): ~200 RFUs

## CC(C)NCC(O)COc1cccc2ccccc12 (centres unmarked) [propranolol]
[8]; initial incubation with propranolol 0 to 20 μM
  beating rate after administration of 5 μM epinephrine: dose dependent decrease in beating rate
[13]; propranolol only, 0.1 μM, liver construct present
  change in beating rate: no decrease in beating rate
[14]; Group 1, no liver organoids, 0.1 μM propranolol first
  effect of propranolol on response to 0.5 μM epinephrine: successfully blocked the beta-adrenergic effects
[14]; propranolol only, 0.1 μM, p<0.05
  decrease in beating rate: ~ 10%

## CC(CC(c1ccccc1)c1ccccc1)NC(C)(C)C (centres unmarked) [Terodiline]
[8]
  beating kinetics of 3D cardiac organoids: detrimental changes in beating kinetics
[2]
  Site of Primary Toxicity: Heart
[7]; only at the highest concentration of 100 μM
  sensitivity by ATP activity, 3D cardiac organoids compared to the 2D systems: slightly more sensitive

## CNC[C@H](O)c1ccc(O)c(O)c1 [epinephrine]
[8]
  epinephrine concentration at which beat rate increase reaches a plateau: ≥ 5 µM
[8]; increasing epinephrine concentration
  dose dependent increase in beat rate: 1 to 2 fold
[13]; Group 2, liver component present, 0.1 μM propranolol then 0.5 μM epinephrine
  increase in BPM after epinephrine: 1.25 fold
[13]; Group 2, liver organoids, propranolol then epinephrine
  response relative to control epinephrine-only response: approximately 50%
[13]; Group 2 conditions with 2D hepatocyte culture (1-2 million cells) in place of 3D liver organoids
  restoration of the epinephrine-induced increase in beat rate: failed to achieve any restoration
[13]; epinephrine only, 0.5 μM, liver component present, p<0.05
  increase in beating rate: ~30%
[14]; epinephrine only, 0.5 μM
  increase in beating rate: ~ 40%
[14]; experimental controls, no propranolol prior to epinephrine
  increase in cardiac BPM after epinephrine: 1.5 fold

## Nc1c(CC(=O)O)cccc1C(=O)c1ccc(Br)cc1 [Bromfenac]
[1]
  sensitivity by ATP activity, 3D organoids and 2D hepatocyte cultures in comparison to 2D HepG2 cultures: slightly more resistant
[2]
  Site of Primary Toxicity: Liver
